In patent publication US9144557B2, “Hematopoietic growth factor mimetic small molecule compounds and their uses” (Ligand Pharmaceuticals Inc., priority 2009, dated 2015):

System: UT7/EPO Cell line
Assay: Cell Proliferation Assay (UT7/EPO, ViaLight Plus)
Assay type: cell-based, human
Settings: proliferative effect; compounds at 10 uM; UT7/EPO cells starved of EPO overnight; 72 hours at 37° C.; ViaLight Plus kit
Experimental: The primary testing for the examplfied compounds was performed in UT7/EPO Cell line. UT7/EPO is human leukemia cell line, obtained from Dr. Norio Komatsu (Blood, Vol 82 (2), pp 456-464, 1993). These cells express endogenous EPO receptor and are dependant upon EPO for growth and proliferation. Briefly, the cells were starved of EPO overnight and plated in 96 or 384 well plates. The compounds were added to the cells at 10 uM concentration. The plates were then incubated at 37° C. for 72 hours. The proliferative effect of the compounds was measured by a commercially available kit from Lonza (ViaLight Plus).

SMILES | Activity (%)
O=C(Nc1ccc(C(=O)c2ccc(NC(=O)c3cccc4cc[nH]c34)cc2)cc1)c1ccc(N2CCC(O)CC2)cc1 [Compound 690, N-(4-(4-(4-(4-Hydroxypiperidin-1-yl)benzamido)benzoyl)phenyl)-1H-indolyl-7-carboxamide] | 16%
O=C(Nc1ccc2c(cnn2-c2ccc(NC(=O)c3cccs3)cc2)c1)c1ccc(N2CCCC(CO)C2)cc1 (racemic) [Compound 520, (±)-N-(4-(5-(4-(3-Hydroxymethyl)piperidin-1-yl)benzamido)-1H-indazol-1-yl)phenyl)thiophene-2-carboxamide] | 13%
O=C(Nc1ccc2c(cnn2-c2ccc(NC(=O)c3ccc4cc[nH]c4c3)cc2)c1)c1ccc(N2CCC(O)CC2)cc1 [Compound 510, N-(4-(5-(4-(4-Hydroxypiperidin-1-yl)benzamido)-1H-indazol-1-yl)phenyl)-1H-indole-6-carboxamide] | 17%
CN(C)c1ccc(C(=O)Nc2ccc(C(=NOC(=O)Cc3ccccc3)c3ccc(NC(=O)c4ccc(N(C)C)cc4)cc3)cc2)cc1 [Compound 310, N,N′-((((2-phenylacetoxy)imino)methylene)bis(4,1-phenylene))bis(4-(dimethylamino)benzamide)] | 22%
O=C(Nc1ccc2[nH]c(-c3ccc(N4CCOCC4)cc3)nc2c1)c1ccc2nc(-c3ccc(OCCO)cc3)[nH]c2c1 [Compound 299, 2-(4-(2-hydroxyethoxy)phenyl)-N-(2-(4-morpholinophenyl)-1H-benzo[d]imidazol-5-yl)-1H-benzo[d]imidazole-6-carboxamide] | 15%
Cn1ccc2cc(C(=O)N/N=C/c3cccc(/C=N/NC(=O)c4ccc5c(ccn5C)c4)c3)ccc21 [Compound 125, (N′,N′″E,N′,N′″E)-N′,N′″-(1,3-phenylenebis(methanylylidene))bis(1-methyl-1H-indole-5-carbohydrazide)] | 15%
COc1cccc(/C=N/NC(=O)c2ccc(C(=O)Nc3ccc4nc(-c5ccc(N(C)C)cc5)[nH]c4c3)cc2)c1 [Compound 278, (E)-N-(2-(4-(dimethylamino)phenyl)-1H-benzo[d]imidazol-6-yl)-4-(2-(3-methoxybenzylidene)hydrazinecarbonyl)benzamide] | 23%
N#Cc1cc(NC(=O)c2ccc(N3CCC(C(F)(F)F)CC3)cc2)ccc1Nc1ccc(NC(=O)c2cc[nH]c2)cc1 [Compound 885, N-(4-((2-Cyano-4-(4-(4-trifluoromethylpiperidin-1-yl)benzamido)phenyl)amino)phenyl)-1H-pyrrole-3-carboxamide] | 21%
CON=C(c1ccc(NC(=O)c2ccc(N(C)CCO)cc2)cc1)c1ccc(NC(=O)c2ccc(N(C)CCO)cc2)cc1 [Compound 332, N,N′-(((methoxyimino)methylene)bis(4,1-phenylene))bis(4-((2-hydroxyethyl)(methyl)amino)benzamide)] | 18%
Cn1cccc1C(=O)Nc1ccc(Nc2ccc(NC(=O)c3ccc(N4CCC(O)CC4)c(F)c3)cc2)cc1 [Compound 815, N-(4-((4-(3-Fluoro-4-(4-hydroxypiperidin-1-yl)benzamido)phenyl)amino)phenyl)-1-methyl-1H-pyrrole-2-carboxamide] | 17%
COc1cccc(C(=O)Nc2ccc3[nH]c(-c4ccccc4)nc3c2)c1 [Compound 1724, 3-Methoxy-N-(2-phenyl-1H-benzimidazol-5-yl)benzamide] | 13%
Cc1cc(C(=O)Nc2ccc(C(=O)c3ccc(NC(=O)c4ccc(N5CCOCC5)cc4)cc3)cc2)[nH]n1 [Compound 500, 3-Methyl-N-(4-(4-(4-morpholinobenzamido)benzoyl)phenyl)-1H-pyrazole-5-carboxamide] | 19%
CN(C)c1ccc(C(=O)Nc2ccc3[nH]c(-c4ccc5c(ccn5C)c4)nc3c2)cc1 [Compound 1734, N-(2-(1-Methyl-1H-indol-5-yl)benzimidazol-5-yl)-4-dimethylaminobenzamide] | 20%
O=C(C1CC1)N1CCN(c2ccc(-c3nc4ccc(-c5ccc(O)cc5)cc4[nH]3)cc2)CC1 [Compound 680, Cyclopropyl(4-(4-(6-(4-hydroxyphenyl)-1H-benzo[d]imidazol-2-yl)phenyl)piperazin-1-yl)methanone] | 10%
CN(C)c1ccc(C(=O)Nc2ccc(-n3ccc4cc(NC(=O)c5ccc(N(C)C)cc5)ccc43)cc2)cc1 [Compound 370, N-(1-(4-(4-Dimethylaminobenzamido)phenyl)-1H-indol-5-yl)-4-dimethylaminobenzamide] | 18%
O=C(Nc1ccc(C(=O)c2ccc(NC(=O)c3ccc(N(CCO)CCO)cc3)cc2)cc1)c1ccc(N(CCO)CCO)cc1 [Compound 327, N,N′-(carbonylbis(4,1-phenylene))bis(4-(bis(2-hydroxyethyl)amino)benzamide)] | 17%
O=C(Nc1ccc2[nH]c(-c3ccc(N4CCOCC4)s3)nc2c1)c1ccc(N2CCOCC2)cc1 [Compound 418, N-(2-(2-Morpholinothien-5-yl)-1H-benzimidazol-5-yl)-4-morpholinobenzamide] | 11%

SMILES | Activity (%)
COc1ccc(-c2nc3cc(NC(=O)c4ccc(-n5cccc5)cc4)ccc3[nH]2)cc1 [Compound 1729, N-(2-(4-Methoxyphenyl)-1H-benzimidazol-5-yl)-4-pyrrolylbenzamide] | 14%
O=C(Nc1ccc(Nc2ccc(NC(=O)c3ccc4c(ccn4CCO)c3)cc2)cc1)c1ccc(N2CCC(O)CC2)cc1 [Compound 775] | 22%
COc1cccc(/C=N/NC(=O)c2ccc(C(=O)NCCC(=O)NCCCCO)cc2)c1 [Compound 165, (E)-N-(3-((4-hydroxybutyl)amino)-3-oxopropyl)-4-(2-(3-methoxybenzylidene)hydrazinecarbonyl)benzamide] | 19%
CN1CCN(c2ccc3nc(-c4ccc5[nH]c(-c6ccccc6)nc5c4)[nH]c3c2)CC1 [Compound 1710, 5-(6-(4-Methylpiperazino)-1H-benzimidazol-2-yl)-2-phenyl-1H-benzimidazole] | 11%
O=C(Nc1ccc(C(=O)c2ccc(NC(=O)c3c[nH]nn3)cc2)cc1)c1ccc(N2CCOCC2)cc1 [Compound 610, 4-Morpholino-N-(4-(4-(1,2,3-triazole-4-carboxamido)benzoyl)phenyl)benzamide] | 14%
O=C(Nc1ccc(N2CCC(O)CC2)cc1)c1ccc2c(cnn2-c2ccc(NC(=O)C3CC3)cc2)c1 [Compound 945, 1-(4-(Cyclopropanecarboxamido)phenyl)-N-(4-(4-hydroxypiperidin-1-yl)phenyl)-1H-indazole-5-carboxamide] | 10%
CON=C(c1ccc(NC(=O)c2ccc(N3CCC(O)C3)cc2)cc1)c1ccc(NC(=O)c2ccc(N3CCC(O)C3)cc2)cc1 (stereo not shown) [Compound 315, N,N′-(((methoxyimino)methylene)bis(4,1-phenylene))bis(4-(3-hydroxypyrrolidin-1-yl)benzamide)] | 16%
COc1ccc(/C=N/NC(=O)c2ccc(N(C)C)cc2)cc1/C=N/NC(=O)c1ccc(N(C)C)cc1 [Compound 106, (N′,N′″E,N′,N′″E)-N′,N′″-((4-methoxy-1,3-phenylene)bis(methanylylidene))bis(4-(dimethylamino)benzohydrazide)] | 14%
CON=C(c1ccc(NC(=O)c2ccc(N3CCN(C(=O)C4CC4)CC3)cc2)cc1)c1ccc(NC(=O)c2ccc(N3CCN(C(=O)C4CC4)CC3)cc2)cc1 [Compound 338, N,N′-(((methoxyimino)methylene)bis(4,1-phenylene))bis(4-(4-(cyclopropanecarbonyl)piperazin-1-yl)benzamide)] | 19%
CN(C)c1ccc(C(=O)Nc2ccc(-n3ncc4cc(NC(=O)C5CC5)ccc43)cc2)cc1 [Compound 384, N-(4-(5-(cyclopropanecarboxamido)-1H-indazol-1-yl)phenyl)-4-(dimethylamino)benzamide] | 11%
N#Cc1ccc(-n2ncc3cc(NC(=O)c4ccc(N5CCC(O)CC5)cc4)ccc32)cc1 [Compound 404, N-(1-(4-Cyanophenyl)-1H-indazol-5-yl)-4-(4-hydroxypiperidino)benzamide] | 14%
O=C(Nc1ccc(Nc2ccc(NC(=O)c3ccc4[nH]cnc4c3)cc2)cc1)c1ccc2[nH]cnc2c1 [Compound 590, N,N′-(4,4′-Azanediylbis(4,1-phenylene))bis(1H-benzimidazole-5-carboxamide)] | 12%
O=C(Nc1ccc2c(cnn2-c2ccc(NCC3CC3)cc2)c1)c1ccc(N2CCOCC2)cc1 [Compound 530] | 11%
O=C(Nc1ccc2[nH]c(-c3ccc(C(=O)NC4CC4)cc3)nc2c1)c1ccc(N2CCC(O)C2)cc1 (stereo not shown) [Compound 240, N-cyclopropyl-4-(5-(4-(3-hydroxypyrrolidin-1-yl)benzamido)-1H-benzo[d]imidazol-2-yl)benzamide] | 15%
O=C(Nc1ccc2cc[nH]c2c1)c1ccc(-c2nc3ccc(-c4cccnc4)cc3[nH]2)cc1 [Compound 650, N-(1H-indol-6-yl)-4-(6-(pyridin-3-yl)-1H-benzo[d]imidazol-2-yl)-benzamide] | 13%
CN(C)c1ccc(-c2nc3cc(NC(=O)c4ccc(C(=O)NN)cc4)ccc3[nH]2)cc1 [Compound 273, N-(2-(4-(dimethylamino)phenyl)-1H-benzo[d]imidazol-5-yl)-4-(hydrazinecarbonyl)benzamide] | 16%
CN(C)c1cccc(/C=N/NC(=O)c2ccc(NCCCC(=O)NCCO)cc2)c1 [Compound 151, (E)-4-((4-(2-(3-(dimethylamino)benzylidene)hydrazinecarbonyl)phenyl)amino)-N-(2-hydroxyethyl)butanamide] | 20%
